Consider 12 compounds from patent US9649389B2, “Substituted silaxanthenium red to near-infrared fluorochromes for in vitro and in vivo imaging and detection” (VisEn Medical, Inc., priority 2013, dated 2017).

The nature of series [1]: Optical properties of silaxanthenium fluorochromes (absorption/emission maxima, relative brightness). The following applies: for Abs. λmax / Em. Λmax: 1×PBS, 1 cm square cuvette; for Relative Fluorescence: brightness (fluorescence intensity / absorption at λmax) normalized to CY1, 1×PBS. Type of series: physicochemical. An excerpt: The relative brightness is defined by the fluorescence intensity of a solution of the fluorochrome in a 1 cm square cuvette when excited at its wavelength of maximum absorption divided by the absorption of the same sample at the wavelength of maximum absorption. The three examples shown with a S atom in the X position of Formula II are red shifted about 20 nm relative to three examples with the S atom in the Y or Z positions.
This example summarizes in Table 3 the absorption and emission characteristics of some exemplary silaxanthenium (SX) fluorochromes relative to a cell impermeable cyanine dye (sulfonated Cy5 analog) CY1. Absorption and emission characteristics were measured in 1×PBS in a 1 cm square cuvette. Relative fluorescence (brightness) was measured as in Example 8 and normalized to that of compound CY1.

Another series concerns 4T1 cells. Nature of the series: Cellular uptake and washout by flow cytometry and fluorescence microscopy. Type of series: cell-based. The following applies: for cellular uptake: 1 uM, 30 min, 37° C.; for dye still remaining after washout: 1.5 h washout, flow cytometry. Here is the method: (§1) Two isomeric thienyl Si-Rho dyes 88 and 89, were synthesized using the methods described previously. The two isomeric compounds, which are of identical molecular weight and molecular formula, have absorption and emission maxima of 652 nm and 668 nm (88) and 667 nm and 681 nm (89). Compounds were analyzed with two different filter sets by flow cytometry and also by fluorescence microscopy for cellular uptake and washout. Trypsin EDTA-detached 4T1 at 0.5 mil cells/mL culture medium were incubated with 1 uM 88 or 89 for 30 min at 37° C. Cells were washed 1× with PBS and analyzed by flow cytometry with a 705/70 nm emission filter for 88 and a 712/21 nm emission filter for 89 and by fluorescence microscopy.
On the technique in general: In flow cytometry, cells or beads pass a laser one at a time.

Series [2] is described as follows: Absorption and emission maxima of two isomeric thienyl dyes. Format: physicochemical. Here is the method:
as §1

Another series concerns chymotrypsin. Description: Fluorescence activation of internally quenched probe upon protease cleavage. Type of series: biochemical. The settings on record: 1×PBS, 37° C., 4 h. An excerpt: FIG. 6A illustrates fluorescence activation upon enzyme cleavage of an internally quenched pair of silaxanthenium fluorochromes separated by an enzyme cleavable peptide sequence (Compound 78). Compound 78 was synthesized by conjugating two carboxylic acid dyes to lysine side chain amines in the peptide sequence using HATU and triethylamine. The quenched probe was purified by HPLC. Absorbance and fluorescence, measured on a Cary 50 UV-vis spectrophotometer (Varian) and a Cary Eclipse fluorescence spectrophotometer, respectively, of the quenched (dashed lines) and activated (cleaved by chymotrypsin in 1×PBS, solid lines) fluorochromes are shown in FIG. 6B.
A 22-fold increase in fluorescence intensity was observed. […] Trypsin EDTA-detached 4T1 were seeded in a 6-well tissue culture plate at 0.5 mil cells/2 mL of culture medium were incubated with 1 or 5 uM of 92, 93, or 91 for 21 h at 37° C. Cells were washed 1× with PBS, detached, and analyzed by FC and FLM (Cy5 filter). […] Trypsin EDTA-detached 4T1 cells were implanted 1.5 mil/site approximately 1 week prior to imaging. 92 was injected retro-orbitally at 4 nmol and imaged by FMT at 5 and 24 h.

The nature of series [3]: In vivo tomographic imaging (FMT 2500) after intravenous injection. The settings on record: 2 nmoles intravenous, SKH-1 E female mice. On the procedure: Two SKH-1 E female mice (9 weeks old) were injected with 2 nmoles of compound 44. Tomographic images of the whole body of the mouse were taken at 1, 15, 30 and 45 minutes and 1, 2 and 3 hours.
The next series relates to KB cells. Description: Cell uptake of glucosamine conjugated SX compound by fluorescence microscopy and flow cytometry. Format: cell-based. The settings on record: 30 μM, 30 minutes. On the procedure: This example illustrates cell uptake of a biomolecule (glucosamine) conjugated SX compound, compound 67 in KB cells. KB cells were cultured in media for 2 h then incubated with 30 μM of compound 67 for 30 minutes before analysis of the cells by fluorescence microscopy and flow cytometry with appropriate filter sets for the two different fluorescent dyes. As a control, cells were also incubated with the commercial fluorescent glucosamine derivative 2-NBDG also at 30 μM.

Bounds are passed on as bounds.

With `Cc1c(C(=O)O)sc(C2=C3C=CC(=[N+](C)C)C=C3[Si](C)(C)c3cc(N(C)C)ccc32)c1Br` [Compound 66], the red shift in series [1] (relative to compound 17 (S moved from Z to X position, bromine substituent added)) was determined as 23 nm.

Turning to `Cc1c(C2=C3C=CC(=[N+](C)C)C=C3[Si](C)(C)c3cc(N(C)C)ccc32)csc1C(=O)O` [Compound 18, 3,6-bis(dimethylamino)-9-(2-carboxy-3-methyl-thien-4-yl)-10,10-dimethyl-10-silaxanthenium chloride], in series [1], the “Abs. λmax” value worked out at 653 nm, the “Em. Λmax” value was 668 nm and the “Relative Fluorescence” value is 1.02.

In the case of `CN(C)c1ccc2c(c1)[Si](C)(C)c1cc(N(C)C)ccc1[C+]2c1cccs1` [Compound 89], in the series on 4T1 cells, the cellular uptake result was “Significant uptake” and the “dye still remaining after washout” value is reported as “approximately one third”. In series [2], this compound yielded an absorption maximum of 667 nm and an emission maximum of 681 nm.

On to `CC(C)C[C@@H](NC(=O)[C@@H](Cc1ccccc1)NC(=O)CNC(=O)[C@@H](CCCCNC(=O)c1cc(C2=C3C=CC(=[N+](C)C)C=C3[Si](C)(C)c3cc(N(C)C)ccc32)c(C(=O)[O-])s1)NC(=O)CCC(=O)O)C(=O)NCC(=O)N[C@H](CCCCNC(=O)c1cc(C2=C3C=CC(=[N+](C)C)C=C3[Si](C)(C)c3cc(N(C)C)ccc32)c(C(=O)[O-])s1)C(N)=O` [Compound 91], for which the “increase in fluorescence intensity” value in the series on chymotrypsin stood at 22 fold.

Take `Cc1csc(C(=O)O)c1C1=C2C=CC(=[N+](C)C)C=C2[Si](C)(C)c2cc(N(C)C)ccc21` [Compound 17, 3,6-bis(dimethylamino)-9-(2-carboxy-4-methyl-thien-3-yl)-10,10-dimethyl-10-silaxanthenium chloride]: in series [1], the “Abs. λmax” value was 649 nm, the “Em. Λmax” value is 666 nm and the “Relative Fluorescence” value is reported as 1.11.

In the case of `Cc1cc(C(=O)O)ccc1C1=C2C=CC(=[N+]3CCOCC3)C=C2[Si](C)(C)c2cc(N3CCOCC3)ccc21` [Compound 45, 3,6-bis(morpholino)-9-(2-methyl-4-carboxyphenyl)-10,10-dimethyl-10-silaxanthenium], in series [1], the “Abs. λmax” value was 651 nm, the “Em. Λmax” value stood at 670 nm and the “Relative Fluorescence” value came to 0.75.

For the compound `CN(C)c1ccc2c(c1)[Si](C)(C)c1cc(N(C)C)ccc1[C+]2c1ccsc1` [Compound 88], in the series on 4T1 cells, the cellular uptake entry is “Significant uptake” and the “dye still remaining after washout” value is reported as “approximately one third”. In series [2], this compound yielded an absorption maximum of 652 nm and an emission maximum of 668 nm.

On to `CN(C)c1ccc2c(c1)[Si](C)(C)C1=CC(=[N+](C)C)C=CC1=C2c1ccc(C(=O)O)s1` [Compound 65, 3,6-bis(dimethylamino)-9-(2-carboxy-thien-5-yl)-10,10-dimethyl-10-silaxanthenium chloride], for which, in series [1], the “Abs. λmax” value is recorded as 669 nm, the “Em. Λmax” value was 683 nm and the “Relative Fluorescence” value is listed as 0.05.

For `Cc1cc(C(=O)O)ccc1C1=C2C=CC(=[N+]3CCCC3)C=C2[Si](C)(C)c2cc(N3CCCC3)ccc21` [Compound 44, 3,6-bis(pyrridolin-1-yl)-9-(2-methyl-4-carboxyphenyl)-10,10-dimethyl-10-silaxanthenium], the “wash out of the untargeted compound” value in series [3] is reported as no more than 3 h. Besides, the “biodistribution by tomographic imaging” value in series [3] (imaged 1 minute to 3 hours) is “Rapid accumulation of the fluorochrome compound can be seen in the heart region followed by slower accumulation to other areas of the body”. In addition, in series [1], the “Abs. λmax” value turned out to be 655 nm, the “Em. Λmax” value is reported as 669 nm and the “Relative Fluorescence” value came out at 1.54.

`Cc1ccccc1C1=C2C=CC(=[N+](C)C)C=C2[Si](C)(C)c2cc(N(C)C)ccc21` [Compound 77]: in series [1], the “Abs. λmax” value was determined as 650 nm, the “Em. Λmax” value was 666 nm and the “Relative Fluorescence” value was determined as 1.20.

Take `Cc1cc(C(=O)N[C@@H]2[C@@H](O)[C@H](O)[C@@H](CO)O[C@@H]2O)ccc1C1=C2C=CC(=[N+]3CCCC3)C=C2[Si](C)(C)c2cc(N3CCCC3)ccc21` [Compound 67]: in the series with KB cells, the cell uptake entry was “taken up by the cells” and the “quantification of cell fluorescence by flow cytometry” value was “detector saturation”.

As to `O=[N+]([O-])c1ccc(N[C@H]2C(O)O[C@H](CO)[C@@H](O)[C@@H]2O)c2nonc12` (stereo partly shown) [Compound 2-NBDG, reference compound], in the series on KB cells, the cell uptake entry is on record as “taken up by the cells” and the “quantification of cell fluorescence by flow cytometry” value was “in normal analysis range”.
